Data taken from patent US20250145665A1, “MACROCYCLIC PEPTIDES USEFUL AS MODULATORS OF TNF ALPHA” (Bristol-Myers Squibb Company, priority 2023, published 2025).
Where two headings read alike, the source gives them in different places. Starred links: 1 amine or outer side, 2 acyl side, 3 side chain; linkers in the order of their positions; H or OH if unused. Positions of bridges follow the written chain, without caps; N, C: chain ends. Non-standard residues stand in square brackets, D forms with d. Residues, ends and D or L forms follow the SMILES beside them. Bip(4'-COOH) = N[C@@H](Cc1ccc(-c2ccc(C(=O)O)cc2)cc1)C(=O)O; Bip(4'-NHAc) = CC(=O)Nc1ccc(-c2ccc(C[C@H](N)C(=O)O)cc2)cc1; Phe(3-CH2NH2) = O=C([C@H](Cc1cccc(CN[*:3])c1)N[*:1])[*:2]; Ala(morpholin-4-yl) = N[C@@H](CN1CCOCC1)C(=O)O; Phe(3-CONH2) = NC(=O)c1cccc(C[C@H](N)C(=O)O)c1; Bip = N[C@@H](Cc1ccc(-c2ccccc2)cc1)C(=O)O; Phe(3-OMe) = COc1cccc(C[C@H](N)C(=O)O)c1; Tiq1c(1S) = O=C(O)[C@H]1NCCc2ccccc21; Hyp = O=C(O)[C@@H]1C[C@@H](O)CN1; 2Pal = N[C@@H](Cc1ccccn1)C(=O)O; Tic = O=C(O)[C@@H]1Cc2ccccc2CN1; Cha = N[C@@H](CC1CCCCC1)C(=O)O; Chg = N[C@H](C(=O)O)C1CCCCC1; Aze = O=C(O)[C@@H]1CCN1; Sar = CNCC(=O)O

Target: TNFα (Homo sapiens, UniProt P01375)
Sequence (P01375 77-233 limits assumed): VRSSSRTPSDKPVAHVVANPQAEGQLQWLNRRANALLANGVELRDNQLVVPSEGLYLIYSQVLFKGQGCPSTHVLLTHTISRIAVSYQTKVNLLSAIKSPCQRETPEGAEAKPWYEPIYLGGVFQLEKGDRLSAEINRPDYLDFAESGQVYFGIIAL
Test: TNF-Induced HEK-Blue Assay
Assay type: cell-based
[1] = HEK-Blue-CD40L cells, NF-kB-driven secreted alkaline phosphatase reporter, TNFα 0.5 ng/ml, 18 h, read-out: TNF induced HEK-Blue assay IC50 value

SMILES | IC50 [1] | IC50
CC(=O)Nc1ccc(-c2ccc(C[C@@H]3NC(=O)[C@H](Cc4ccc(-c5ccc(C(=O)O)cc5)cc4)NC(=O)[C@H](CC4CCCCC4)NC(=O)CSC[C@@H](C(=O)NCC(N)=O)NC(=O)[C@H](CC(C)C)NC(=O)[C@H](Cc4cnc[nH]4)NC(=O)[C@H](C4CCCCC4)NC(=O)[C@@H]4CCN4C(=O)[C@H](C(C)C)NC(=O)[C@@H](CCCNC(=N)N)NC(=O)[C@H](CC(=O)O)NC(=O)[C@H](Cc4cnc[nH]4)NC(=O)CN(C)C3=O)cc2)cc1 [Example 272] ({CH2CO}-[Cha][Bip(4'-COOH)][Bip(4'-NHAc)][Sar]HD[dR]V[Aze][Chg]HLCG-NH2; thioether N-13) | 50 to 200 nM | 
CC(=O)Nc1ccc(-c2ccc(C[C@@H]3NC(=O)[C@H](Cc4ccc(-c5ccccc5)cc4)NC(=O)[C@H](CN4CCOCC4)NC(=O)CSC[C@@H](C(=O)NCC(N)=O)NC(=O)[C@H](CC(C)C)NC(=O)[C@H](Cc4cnc[nH]4)NC(=O)[C@H](C(C)C)NC(=O)[C@@H]4CCN4C(=O)[C@H](C(C)C)NC(=O)[C@@H](CCCNC(=N)N)NC(=O)[C@H](CC(=O)O)NC(=O)[C@H](Cc4ccc(O)cc4)NC(=O)CN(C)C3=O)cc2)cc1 [Example 273] ({CH2CO}-[Ala(morpholin-4-yl)][Bip][Bip(4'-NHAc)][Sar]YD[dR]V[Aze]VHLCG-NH2; thioether N-13) | < 50 nM | 
CC[C@H](C)[C@@H]1NC(=O)[C@@H](CCCNC(=N)N)NC(=O)[C@H](CC(=O)O)NC(=O)[C@H](Cc2cnc[nH]2)NC(=O)CN(C)C(=O)[C@H](Cc2ccc(-c3ccc(NC(C)=O)cc3)cc2)NC(=O)[C@H](Cc2ccc(-c3ccc(C(=O)O)cc3)cc2)NC(=O)[C@H](CC2CCCCC2)NC(=O)CSC[C@@H](C(=O)NCC(N)=O)NC(=O)[C@H](CC(C)C)NC(=O)[C@H](Cc2cnc[nH]2)NC(=O)[C@H](C(C)C)NC(=O)[C@@H]2Cc3ccccc3CN2C1=O [Example 274] ({CH2CO}-[Cha][Bip(4'-COOH)][Bip(4'-NHAc)][Sar]HD[dR]I[Tic]VHLCG-NH2; thioether N-13) | < 50 nM | 
CC(=O)Nc1ccc(-c2ccc(C[C@@H]3NC(=O)[C@H](Cc4ccc(-c5ccc(C(=O)O)cc5)cc4)NC(=O)[C@H](CC4CCCCC4)NC(=O)CSC[C@@H](C(=O)NCC(N)=O)NC(=O)[C@H](CC(C)C)NC(=O)[C@H](Cc4ccc(O)cc4)NC(=O)[C@H](C(C)C)NC(=O)[C@@H]4Cc5ccccc5CN4C(=O)[C@H](C(C)C)NC(=O)[C@@H](CCCNC(=N)N)NC(=O)[C@H](CC(=O)O)NC(=O)[C@@H]4CCCN4C(=O)CN(C)C3=O)cc2)cc1 [Example 275] ({CH2CO}-[Cha][Bip(4'-COOH)][Bip(4'-NHAc)][Sar]PD[dR]V[Tic]VYLCG-NH2; thioether N-13) | 50 to 200 nM | 
CC[C@H](C)[C@@H]1NC(=O)[C@@H](CCCNC(=N)N)NC(=O)[C@H](CC(=O)O)NC(=O)[C@H](Cc2cnc[nH]2)NC(=O)CN(C)C(=O)[C@H](Cc2ccc(-c3ccc(NC(C)=O)cc3)cc2)NC(=O)[C@H](Cc2ccc(-c3ccc(C(=O)O)cc3)cc2)NC(=O)[C@H](CC2CCCCC2)NC(=O)CSC[C@@H](C(=O)NCC(N)=O)NC(=O)[C@H](CC(C)C)NC(=O)[C@H](Cc2cnc[nH]2)NC(=O)[C@H](C(C)C)NC(=O)[C@@H]2c3ccccc3CCN2C1=O [Example 276] ({CH2CO}-[Cha][Bip(4'-COOH)][Bip(4'-NHAc)][Sar]HD[dR]I[Tiq1c(1S)]VHLCG-NH2; thioether N-13) | < 50 nM | 
CC[C@H](C)[C@@H]1NC(=O)[C@@H](CCCNC(=N)N)NC(=O)[C@H](CC(=O)O)NC(=O)[C@H](Cc2cnc[nH]2)NC(=O)CN(C)C(=O)[C@H](Cc2ccc(-c3ccc(NC(C)=O)cc3)cc2)NC(=O)[C@H](Cc2ccc(-c3ccc(C(=O)O)cc3)cc2)NC(=O)[C@H](CC2CCCCC2)NC(=O)CSC[C@@H](C(=O)NCC(N)=O)NC(=O)[C@H](CC(C)C)NC(=O)[C@H](Cc2cnc[nH]2)NC(=O)[C@H](C(C)C)NC(=O)[C@@H]2C[C@@H](O)CN2C1=O [Example 277] ({CH2CO}-[Cha][Bip(4'-COOH)][Bip(4'-NHAc)][Sar]HD[dR]I[Hyp]VHLCG-NH2; thioether N-13) | < 50 nM | 
CC(=O)Nc1ccc(-c2ccc(C[C@@H]3NC(=O)[C@H](Cc4ccc(-c5ccc(C(=O)O)cc5)cc4)NC(=O)[C@H](CC4CCCCC4)NC(=O)CSC[C@@H](C(=O)NCC(N)=O)NC(=O)[C@H](CC(C)C)NC(=O)[C@H](Cc4ccc(O)cc4)NC(=O)[C@H](C(C)C)NC(=O)[C@@H]4c5ccccc5CCN4C(=O)[C@H](C(C)C)NC(=O)[C@@H](CCCNC(=N)N)NC(=O)[C@H](CC(=O)O)NC(=O)[C@@H]4CCCN4C(=O)CN(C)C3=O)cc2)cc1 [Example 278] ({CH2CO}-[Cha][Bip(4'-COOH)][Bip(4'-NHAc)][Sar]PD[dR]V[Tiq1c(1S)]VYLCG-NH2; thioether N-13) |  | 50 to 200 nM
CC[C@H](C)[C@@H]1NC(=O)[C@@H](CCCNC(=N)N)NC(=O)[C@H](CC(=O)O)NC(=O)[C@@H]2c3ccccc3CCN2C(=O)CN(C)C(=O)[C@H](Cc2ccc(-c3ccc(NC(C)=O)cc3)cc2)NC(=O)[C@H](Cc2ccc(-c3ccc(C(=O)O)cc3)cc2)NC(=O)[C@H](CC2CCCCC2)NC(=O)CSC[C@@H](C(=O)NCC(N)=O)NC(=O)[C@H](CC(C)C)NC(=O)[C@H](Cc2ccc(O)cc2)NC(=O)[C@H](C(C)C)NC(=O)[C@@H]2CCCN2C1=O [Example 279] ({CH2CO}-[Cha][Bip(4'-COOH)][Bip(4'-NHAc)][Sar][Tiq1c(1S)]D[dR]IPVYLCG-NH2; thioether N-13) | 50 to 200 nM | 
CC(=O)Nc1ccc(-c2ccc(C[C@@H]3NC(=O)[C@H](Cc4ccc(-c5ccc(C(=O)O)cc5)cc4)NC(=O)[C@H](CC4CCCCC4)NC(=O)CSC[C@@H](C(=O)NCC(N)=O)NC(=O)[C@H](CC(C)C)NC(=O)[C@H](Cc4cnc[nH]4)NC(=O)[C@H](C(C)C)NC(=O)[C@@H]4CCCN4C(=O)[C@H](C4CCCCC4)NC(=O)[C@@H](CCCNC(=N)N)NC(=O)[C@H](CC(=O)O)NC(=O)[C@H](Cc4cnc[nH]4)NC(=O)CN(C)C3=O)cc2)cc1 [Example 280] ({CH2CO}-[Cha][Bip(4'-COOH)][Bip(4'-NHAc)][Sar]HD[dR][Chg]PVHLCG-NH2; thioether N-13) | 50 to 200 nM | 
CC[C@H](C)[C@@H]1NC(=O)[C@@H](CCCNC(=N)N)NC(=O)[C@H](CC(=O)O)NC(=O)[C@H](Cc2cnc[nH]2)NC(=O)CN(C)C(=O)[C@H](Cc2ccc(-c3ccc(NC(C)=O)cc3)cc2)NC(=O)[C@H](Cc2ccc(-c3ccc(C(=O)O)cc3)cc2)NC(=O)[C@H](CC2CCCCC2)NC(=O)CSC[C@@H](C(=O)NCC(N)=O)NC(=O)[C@H](CC(C)C)NC(=O)[C@H](Cc2ccc(OC)cc2)NC(=O)[C@H](C(C)C)NC(=O)[C@@H]2CCCN2C1=O [Example 281] ({CH2CO}-[Cha][Bip(4'-COOH)][Bip(4'-NHAc)][Sar]HD[dR]IPVY(Me)LCG-NH2; thioether N-13) | 50 to 200 nM | 
CC[C@H](C)[C@@H]1NC(=O)[C@@H](CCCNC(=N)N)NC(=O)[C@H](CC(=O)O)NC(=O)[C@H](Cc2cnc[nH]2)NC(=O)CN(C)C(=O)[C@H](Cc2ccc(-c3ccc(NC(C)=O)cc3)cc2)NC(=O)[C@H](Cc2ccc(-c3ccc(C(=O)O)cc3)cc2)NC(=O)[C@H](CC2CCCCC2)NC(=O)CSC[C@@H](C(=O)NCC(N)=O)NC(=O)[C@H](CC(C)C)NC(=O)[C@H](Cc2cccc(OC)c2)NC(=O)[C@H](C(C)C)NC(=O)[C@@H]2CCCN2C1=O [Example 282] ({CH2CO}-[Cha][Bip(4'-COOH)][Bip(4'-NHAc)][Sar]HD[dR]IPV[Phe(3-OMe)]LCG-NH2; thioether N-13) | 50 to 200 nM | 
CC(=O)Nc1ccc(-c2ccc(C[C@@H]3NC(=O)[C@H](Cc4ccc(-c5ccccc5)cc4)NC(=O)[C@H](CC4CCCCC4)NC(=O)CSC[C@@H](C(=O)NCC(N)=O)NC(=O)[C@H](CC(C)C)NC(=O)[C@H](Cc4cccc(CN)c4)NC(=O)[C@H](C(C)C)NC(=O)[C@@H]4CCCN4C(=O)[C@H](C(C)C)NC(=O)[C@@H](CCCNC(=N)N)NC(=O)[C@H](CC(=O)O)NC(=O)[C@H](Cc4ccc(O)cc4)NC(=O)CN(C)C3=O)cc2)cc1 [Example 283] ({CH2CO}-[Cha][Bip][Bip(4'-NHAc)][Sar]YD[dR]VPV[Phe(3-CH2NH2)]LCG-NH2; thioether N-13) | < 50 nM | 
CC[C@H](C)[C@@H]1NC(=O)[C@@H]2CCCN2C(=O)[C@H]([C@@H](C)CC)NC(=O)[C@@H](CCCNC(=N)N)NC(=O)[C@H](CC(=O)O)NC(=O)[C@H](Cc2ccccc2)NC(=O)CN(C)C(=O)[C@H](Cc2ccc(-c3ccc(NC(C)=O)cc3)cc2)NC(=O)[C@H](Cc2ccc(-c3ccc(C(=O)O)cc3)cc2)NC(=O)[C@H](CN2CCOCC2)NC(=O)CSC[C@@H](C(=O)NCC(N)=O)NC(=O)[C@H](CC(C)C)NC(=O)[C@H](Cc2cnc[nH]2)NC1=O [Example 284] ({CH2CO}-[Ala(morpholin-4-yl)][Bip(4'-COOH)][Bip(4'-NHAc)][Sar]FD[dR]IPIHLCG-NH2; thioether N-13) | 50 to 200 nM | 
CC[C@H](C)[C@@H]1NC(=O)[C@@H]2CCCN2C(=O)[C@H]([C@@H](C)CC)NC(=O)[C@@H](CCCNC(=N)N)NC(=O)[C@H](CC(=O)O)NC(=O)[C@H](Cc2ccccn2)NC(=O)CN(C)C(=O)[C@H](Cc2ccc(-c3ccc(NC(C)=O)cc3)cc2)NC(=O)[C@H](Cc2ccc(-c3ccccc3)cc2)NC(=O)[C@H](CC2CCCCC2)NC(=O)CSC[C@@H](C(=O)NCC(N)=O)NC(=O)[C@H](CC(C)C)NC(=O)[C@H](Cc2cccc(C(N)=O)c2)NC1=O [Example 285] ({CH2CO}-[Cha][Bip][Bip(4'-NHAc)][Sar][2Pal]D[dR]IPI[Phe(3-CONH2)]LCG-NH2; thioether N-13) | < 50 nM | 
CC[C@H](C)[C@@H]1NC(=O)[C@@H]2CCCN2C(=O)[C@H]([C@@H](C)CC)NC(=O)[C@@H](CCCNC(=N)N)NC(=O)[C@H](CC(=O)O)NC(=O)[C@@H]2CCCN2C(=O)CN(C)C(=O)[C@H](Cc2ccc(-c3ccc(NC(C)=O)cc3)cc2)NC(=O)[C@H](Cc2ccc(-c3ccc(C(=O)O)cc3)cc2)NC(=O)[C@H](CC2CCCCC2)NC(=O)CSC[C@@H](C(=O)NCC(N)=O)NC(=O)[C@H](CC(C)C)NC(=O)[C@H](Cc2ccc(O)cc2)NC1=O [Example 286] ({CH2CO}-[Cha][Bip(4'-COOH)][Bip(4'-NHAc)][Sar]PD[dR]IPIYLCG-NH2; thioether N-13) | 50 to 200 nM | 
